pIC50: −log10 of the molar value.
Columns and labels:
STK17A = STK17A (Homo sapiens, UniProt Q9UEE5); experiment: Kinase selectivity screen; details: read-out: % Inhibition STK17A
RPS6KA5 = RPS6KA5 (Homo sapiens, UniProt O75582); experiment: Kinase selectivity screen; details: read-out: % Inhibition RPS6KA5
CSNK1G1 = CSNK1G1 (Homo sapiens, UniProt Q9HCP0); experiment: Kinase selectivity screen; details: read-out: % Inhibition CSNK1G1
EGFR = EGFR (Homo sapiens, UniProt P00533); experiment: Kinase selectivity screen; details: read-out: % Inhibition EGFR
PIK3CD = PIK3CD (Homo sapiens, UniProt O00329); experiment: Kinase selectivity screen; details: read-out: % Inhibition PIK3CD
PIK3CD, sequence (O00329 whole entry, species assumed): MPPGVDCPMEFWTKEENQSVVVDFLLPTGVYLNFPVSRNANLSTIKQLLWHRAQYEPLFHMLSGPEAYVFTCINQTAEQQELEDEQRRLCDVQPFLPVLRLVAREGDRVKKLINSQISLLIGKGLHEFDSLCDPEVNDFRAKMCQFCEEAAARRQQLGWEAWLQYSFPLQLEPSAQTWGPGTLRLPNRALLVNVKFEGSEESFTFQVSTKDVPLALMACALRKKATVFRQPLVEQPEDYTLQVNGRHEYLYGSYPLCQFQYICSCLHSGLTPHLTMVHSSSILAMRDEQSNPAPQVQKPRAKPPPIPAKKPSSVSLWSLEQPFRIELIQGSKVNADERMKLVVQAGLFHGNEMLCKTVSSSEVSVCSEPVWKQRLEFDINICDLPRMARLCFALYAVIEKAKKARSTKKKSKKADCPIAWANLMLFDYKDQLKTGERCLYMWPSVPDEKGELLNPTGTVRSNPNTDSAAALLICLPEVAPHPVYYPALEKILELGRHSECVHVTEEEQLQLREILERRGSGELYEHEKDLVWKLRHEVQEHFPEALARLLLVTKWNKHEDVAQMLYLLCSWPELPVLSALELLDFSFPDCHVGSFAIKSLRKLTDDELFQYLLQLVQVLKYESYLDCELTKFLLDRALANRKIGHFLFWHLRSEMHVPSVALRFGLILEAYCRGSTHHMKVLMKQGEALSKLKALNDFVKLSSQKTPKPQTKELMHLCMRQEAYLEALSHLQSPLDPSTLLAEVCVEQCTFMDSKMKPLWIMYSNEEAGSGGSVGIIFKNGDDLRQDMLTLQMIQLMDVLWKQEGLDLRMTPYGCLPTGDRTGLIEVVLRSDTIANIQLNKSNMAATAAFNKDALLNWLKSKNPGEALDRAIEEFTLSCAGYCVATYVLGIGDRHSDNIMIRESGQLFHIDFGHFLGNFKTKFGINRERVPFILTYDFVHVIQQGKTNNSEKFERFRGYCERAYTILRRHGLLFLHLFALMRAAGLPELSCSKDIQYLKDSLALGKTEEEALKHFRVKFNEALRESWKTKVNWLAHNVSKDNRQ
PIK3CD, sequence (P27986 whole entry partner, species assumed): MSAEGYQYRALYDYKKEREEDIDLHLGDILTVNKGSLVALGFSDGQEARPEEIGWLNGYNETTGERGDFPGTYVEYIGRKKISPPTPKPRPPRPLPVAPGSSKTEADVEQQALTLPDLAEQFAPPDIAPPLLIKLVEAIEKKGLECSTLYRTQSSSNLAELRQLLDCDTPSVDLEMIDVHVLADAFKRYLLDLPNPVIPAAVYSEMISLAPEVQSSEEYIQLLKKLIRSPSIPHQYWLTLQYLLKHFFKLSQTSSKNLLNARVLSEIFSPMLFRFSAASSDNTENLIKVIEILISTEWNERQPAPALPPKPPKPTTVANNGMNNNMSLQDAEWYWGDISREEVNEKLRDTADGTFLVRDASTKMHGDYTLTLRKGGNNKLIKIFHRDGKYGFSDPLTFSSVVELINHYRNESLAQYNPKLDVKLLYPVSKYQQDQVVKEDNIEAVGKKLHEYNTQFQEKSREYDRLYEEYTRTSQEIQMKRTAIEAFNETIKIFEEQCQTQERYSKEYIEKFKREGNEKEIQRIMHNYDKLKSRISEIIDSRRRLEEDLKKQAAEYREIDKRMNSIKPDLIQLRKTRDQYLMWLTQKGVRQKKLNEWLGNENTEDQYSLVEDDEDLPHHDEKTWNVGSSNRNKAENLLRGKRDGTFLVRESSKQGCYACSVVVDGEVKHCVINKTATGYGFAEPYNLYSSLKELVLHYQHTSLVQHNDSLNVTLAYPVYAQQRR

SRC = SRC (Homo sapiens, UniProt P12931); experiment: Kinase selectivity screen; details: read-out: % Inhibition SRC
ABL2 = ABL2 (Homo sapiens, UniProt P42684); experiment: Kinase selectivity screen; details: read-out: % Inhibition ABL2
GSK3B = GSK3B (Homo sapiens, UniProt P49841); experiment: Kinase selectivity screen; details: read-out: % Inhibition GSK3B
RPS6KB1 = RPS6KB1 (Homo sapiens, UniProt P23443); experiment: Kinase selectivity screen; details: read-out: % Inhibition RPS6KB1
MYLK = MYLK (Homo sapiens, UniProt Q15746); experiment: Kinase selectivity screen; details: read-out: % Inhibition MYLK
PRKCE = PRKCE (Homo sapiens, UniProt Q02156); experiment: Kinase selectivity screen; details: read-out: % Inhibition PRKCE
PRKCE, sequence (Q02156 whole entry, species assumed): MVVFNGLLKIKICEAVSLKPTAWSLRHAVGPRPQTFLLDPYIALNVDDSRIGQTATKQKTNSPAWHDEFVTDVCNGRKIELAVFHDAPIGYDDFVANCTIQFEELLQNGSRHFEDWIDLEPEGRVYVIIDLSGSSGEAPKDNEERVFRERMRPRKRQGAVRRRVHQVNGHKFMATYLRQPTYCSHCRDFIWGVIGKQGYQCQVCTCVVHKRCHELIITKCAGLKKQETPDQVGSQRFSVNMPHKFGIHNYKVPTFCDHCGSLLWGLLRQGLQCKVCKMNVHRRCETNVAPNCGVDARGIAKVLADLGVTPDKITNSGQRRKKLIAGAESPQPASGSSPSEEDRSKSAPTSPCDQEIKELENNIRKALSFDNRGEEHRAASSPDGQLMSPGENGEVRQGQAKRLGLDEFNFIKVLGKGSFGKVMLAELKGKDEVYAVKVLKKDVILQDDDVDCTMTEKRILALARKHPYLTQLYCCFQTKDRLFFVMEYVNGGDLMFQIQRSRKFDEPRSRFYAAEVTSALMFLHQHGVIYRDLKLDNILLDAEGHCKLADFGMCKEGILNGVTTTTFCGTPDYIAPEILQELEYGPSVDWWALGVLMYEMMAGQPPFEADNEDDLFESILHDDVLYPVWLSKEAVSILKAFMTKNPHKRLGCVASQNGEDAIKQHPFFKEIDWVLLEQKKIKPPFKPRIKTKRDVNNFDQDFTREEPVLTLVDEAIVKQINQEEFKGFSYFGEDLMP

YES1 = YES1 (Homo sapiens, UniProt P07947); experiment: Kinase selectivity screen; details: read-out: % Inhibition YES1
INSRR = INSRR (Homo sapiens, UniProt P14616); experiment: Kinase selectivity screen; details: read-out: % Inhibition INSRR
PRAK = PRAK (Homo sapiens, UniProt Q8IW41); experiment: Kinase selectivity screen; details: read-out: % Inhibition PRAK
CaMK1 = CaMK1 (Homo sapiens, UniProt Q14012); experiment: Kinase selectivity screen; details: read-out: % Inhibition CaMK1
ERBB4 = ERBB4 (Homo sapiens, UniProt Q15303); experiment: Kinase selectivity screen; details: read-out: % Inhibition ERBB4
CDK7/CCNH/MNAT1 = CDK7/CCNH/MNAT1 (Homo sapiens, UniProt P50613); experiment: Kinase selectivity screen; details: read-out: % Inhibition CDK7/CCNH/MNAT1
CDK7/CCNH/MNAT1, sequence (P50613 whole entry, species assumed): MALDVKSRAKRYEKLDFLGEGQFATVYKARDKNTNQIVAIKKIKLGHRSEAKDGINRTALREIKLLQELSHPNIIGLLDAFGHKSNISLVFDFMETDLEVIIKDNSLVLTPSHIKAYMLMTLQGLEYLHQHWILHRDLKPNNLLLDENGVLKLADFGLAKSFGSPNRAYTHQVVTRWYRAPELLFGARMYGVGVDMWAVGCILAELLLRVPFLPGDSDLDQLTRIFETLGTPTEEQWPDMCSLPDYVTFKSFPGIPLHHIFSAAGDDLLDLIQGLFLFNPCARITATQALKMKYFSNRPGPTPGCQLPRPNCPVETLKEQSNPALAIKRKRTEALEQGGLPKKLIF
CDK7/CCNH/MNAT1, sequence (P51946 whole entry partner, species assumed): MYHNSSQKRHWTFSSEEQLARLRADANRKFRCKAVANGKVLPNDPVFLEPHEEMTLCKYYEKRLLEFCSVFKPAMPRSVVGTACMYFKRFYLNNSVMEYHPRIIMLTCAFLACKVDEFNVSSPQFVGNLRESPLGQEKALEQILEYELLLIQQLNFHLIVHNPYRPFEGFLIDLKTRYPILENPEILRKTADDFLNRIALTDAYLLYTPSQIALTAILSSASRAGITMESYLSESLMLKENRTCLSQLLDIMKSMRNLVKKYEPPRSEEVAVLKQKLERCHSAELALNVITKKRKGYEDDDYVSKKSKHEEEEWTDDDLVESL
CDK7/CCNH/MNAT1, sequence (P51948 whole entry partner, species assumed): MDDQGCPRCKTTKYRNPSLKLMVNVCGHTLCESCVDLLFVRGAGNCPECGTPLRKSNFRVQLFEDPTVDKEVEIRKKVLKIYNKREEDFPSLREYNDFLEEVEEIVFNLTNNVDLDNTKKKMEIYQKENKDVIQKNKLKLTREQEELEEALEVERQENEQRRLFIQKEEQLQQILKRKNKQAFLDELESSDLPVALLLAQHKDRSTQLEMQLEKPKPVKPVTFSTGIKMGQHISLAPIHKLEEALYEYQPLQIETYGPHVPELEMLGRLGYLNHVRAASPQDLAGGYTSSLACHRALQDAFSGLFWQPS

GSK3A = GSK3A (Homo sapiens, UniProt P49840); experiment: Kinase selectivity screen; details: read-out: % Inhibition GSK3A
ROCK2 = ROCK2 (Homo sapiens, UniProt O75116); experiment: Kinase selectivity screen; details: read-out: % Inhibition ROCK2
ALK = ALK (Homo sapiens, UniProt Q9UM73); experiment: Kinase selectivity screen; details: read-out: % Inhibition ALK
FGFR2 = FGFR2 (Homo sapiens, UniProt P21802); experiment: Kinase selectivity screen; details: read-out: % Inhibition FGFR2
EPHA5 = EPHA5 (Homo sapiens, UniProt P54756); experiment: Kinase selectivity screen; details: read-out: % Inhibition EPHA5
BLK = BLK (Homo sapiens, UniProt P51451); experiment: Kinase selectivity screen; details: read-out: % Inhibition BLK
STK11 = STK11 (Homo sapiens, UniProt Q15831); experiment: Kinase selectivity screen; details: read-out: % Inhibition STK11
PRKCQ = PRKCQ (Homo sapiens, UniProt Q04759); experiment: Kinase selectivity screen; details: read-out: % Inhibition PRKCQ
PAK7 = PAK7 (Homo sapiens, UniProt Q9P286); experiment: Kinase selectivity screen; details: read-out: % Inhibition PAK7
SRPK1 = SRPK1 (Homo sapiens, UniProt Q96SB4); experiment: Kinase selectivity screen; details: read-out: % Inhibition SRPK1
PIP5K1C = PIP5K1C (Homo sapiens, UniProt O60331); experiment: Kinase selectivity screen; details: read-out: % Inhibition PIP5K1C
PIP5K1C, sequence (O60331 whole entry, species assumed): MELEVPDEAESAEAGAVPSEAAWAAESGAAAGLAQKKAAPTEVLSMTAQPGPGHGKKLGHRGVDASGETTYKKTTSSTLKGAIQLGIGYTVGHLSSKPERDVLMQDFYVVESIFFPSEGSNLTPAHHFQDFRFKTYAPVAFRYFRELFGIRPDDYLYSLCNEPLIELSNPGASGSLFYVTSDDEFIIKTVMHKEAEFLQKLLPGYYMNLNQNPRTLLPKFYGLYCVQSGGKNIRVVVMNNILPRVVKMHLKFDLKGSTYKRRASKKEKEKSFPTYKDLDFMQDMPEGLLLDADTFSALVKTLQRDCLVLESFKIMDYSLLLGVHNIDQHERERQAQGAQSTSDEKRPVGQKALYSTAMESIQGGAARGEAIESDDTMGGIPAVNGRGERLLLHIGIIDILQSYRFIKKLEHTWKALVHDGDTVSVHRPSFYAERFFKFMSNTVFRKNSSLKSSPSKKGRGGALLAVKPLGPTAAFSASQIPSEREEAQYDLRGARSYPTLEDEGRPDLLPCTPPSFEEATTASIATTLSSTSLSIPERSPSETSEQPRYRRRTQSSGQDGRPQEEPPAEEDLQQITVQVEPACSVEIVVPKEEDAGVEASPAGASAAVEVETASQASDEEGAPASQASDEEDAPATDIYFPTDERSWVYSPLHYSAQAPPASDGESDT

DDR2 = DDR2 (Homo sapiens, UniProt Q16832); experiment: Kinase selectivity screen; details: read-out: % Inhibition DDR2
AURKC = AURKC (Homo sapiens, UniProt Q9UQB9); experiment: Kinase selectivity screen; details: read-out: % Inhibition AURKC
PDPK1 = PDPK1 (Homo sapiens, UniProt O15530); experiment: Kinase selectivity screen; details: read-out: % Inhibition PDPK1
TGFBR1 = TGFBR1 (Homo sapiens, UniProt P36897); experiment: Kinase selectivity screen; details: read-out: % Inhibition TGFBR1
AURKB = AURKB (Homo sapiens, UniProt Q96GD4); experiment: Kinase selectivity screen; details: read-out: % Inhibition AURKB
AURKB, sequence (Q96GD4 whole entry, species assumed): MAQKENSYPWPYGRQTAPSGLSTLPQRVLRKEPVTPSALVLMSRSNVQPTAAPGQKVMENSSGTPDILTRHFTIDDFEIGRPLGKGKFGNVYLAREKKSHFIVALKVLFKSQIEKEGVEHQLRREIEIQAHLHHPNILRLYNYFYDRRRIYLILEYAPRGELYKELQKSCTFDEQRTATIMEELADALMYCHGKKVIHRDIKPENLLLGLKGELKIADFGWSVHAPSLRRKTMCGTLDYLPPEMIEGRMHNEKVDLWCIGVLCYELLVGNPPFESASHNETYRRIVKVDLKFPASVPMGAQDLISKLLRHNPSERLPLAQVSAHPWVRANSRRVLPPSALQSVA

Full-length human MNK1 = Full-length human MNK1 (Homo sapiens, UniProt Q9BUB5, T385D); experiment: MNK1 biochemical IC50 assay (Caliper mobility shift)
Full-length human MNK1, sequence (Q9BUB5 1-424 isoform Q9BUB5-2 T344D): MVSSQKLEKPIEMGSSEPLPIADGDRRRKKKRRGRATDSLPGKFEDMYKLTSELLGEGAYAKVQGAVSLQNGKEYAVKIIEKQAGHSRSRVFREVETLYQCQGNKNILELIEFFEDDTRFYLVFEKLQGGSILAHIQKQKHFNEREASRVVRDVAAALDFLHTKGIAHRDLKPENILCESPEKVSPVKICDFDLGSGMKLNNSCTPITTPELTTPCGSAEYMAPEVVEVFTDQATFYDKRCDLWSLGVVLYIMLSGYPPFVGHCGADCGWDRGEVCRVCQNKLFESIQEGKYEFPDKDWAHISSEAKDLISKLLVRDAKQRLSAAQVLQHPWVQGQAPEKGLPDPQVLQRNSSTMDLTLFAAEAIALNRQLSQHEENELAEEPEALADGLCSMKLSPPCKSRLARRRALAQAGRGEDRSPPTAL

**Q.** Which results are given for `CC(C)Oc1cc(F)ccc1Nc1ncnc2cc(C(=O)NCCCN(C)C)n(C)c12` [Example 40, N-[3-(dimethylamino)propyl]-4-{[4-fluoro-2-(propan-2-yloxy)phenyl]amino}-5-methyl-5H-pyrrolo[3,2-d]pyrimidine-6-carboxamide]?
**A.** inhibition at 1 µM (STK17A): 2%; inhibition at 1 µM (RPS6KA5): 0%; inhibition at 1 µM (CSNK1G1): 0%; inhibition at 1 µM (EGFR): 0%; inhibition at 1 µM (PIK3CD): 2%; inhibition at 1 µM (SRC): 0%; inhibition at 1 µM (ABL2): 0%; inhibition at 1 µM (GSK3B): 0%; inhibition at 1 µM (RPS6KB1): 0%; inhibition at 1 µM (MYLK): 0%; inhibition at 1 µM (PRKCE): 0%; inhibition at 1 µM (YES1): 0%; inhibition at 1 µM (INSRR): 0%; inhibition at 1 µM (PRAK): 0%; inhibition at 1 µM (CaMK1): 0%; inhibition at 1 µM (ERBB4): 0%; inhibition at 1 µM (CDK7/CCNH/MNAT1): 5%; inhibition at 1 µM (GSK3A): 0%; inhibition at 1 µM (ROCK2): 0%; inhibition at 1 µM (ALK): 0%; inhibition at 1 µM (FGFR2): 0%; inhibition at 1 µM (EPHA5): 0%; inhibition at 1 µM (BLK): 4%; inhibition at 1 µM (STK11): 0%; inhibition at 1 µM (PRKCQ): 0%; inhibition at 1 µM (PAK7): 0%; inhibition at 1 µM (SRPK1): 0%; inhibition at 1 µM (PIP5K1C): 6%; inhibition at 1 µM (DDR2): 2%; inhibition at 1 µM (AURKC): 28%; inhibition at 1 µM (PDPK1): 0%; inhibition at 1 µM (TGFBR1): 0%; inhibition at 1 µM (AURKB): 14%; pIC50 (Full-length human MNK1): 7.30

From patent US10604524B2, “Pyrropyrimidine compounds as MNKs inhibitors” (LIFEARC, priority 2015, dated 2020)
